Assay results: PubChem BioAssay (NCI)
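Five compound concentrations were applied to cells in 96-well plates for 48 hours; endpoints were derived by simple linear interpolation of the resulting dose-response curve. GI50 marks 50% less growth. TGI: total growth inhibition.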

Key:
Test in all cases: DTP human tumour cell line panel, 48 h
CCRF-CEM leukemia = test system: CCRF-CEM leukemia
U251 CNS = test system: U251 CNS
NCI-H460 lung = test system: NCI-H460 lung
M14 melanoma = test system: M14 melanoma
HCT-116 colon = test system: HCT-116 colon
TK-10 renal = test system: TK-10 renal
RPMI-8226 leukemia = test system: RPMI-8226 leukemia
HT29 colon = test system: HT29 colon
A549 NSCLC = test system: A549 NSCLC
RXF 393 renal = test system: RXF 393 renal

Compound | TGI (CCRF-CEM leukemia) | TGI (U251 CNS) | TGI (NCI-H460 lung) | TGI (M14 melanoma) | TGI (HCT-116 colon) | TGI (TK-10 renal) | TGI (RPMI-8226 leukemia) | TGI (HT29 colon) | TGI (A549 NSCLC) | TGI (RXF 393 renal) | GI50 (CCRF-CEM leukemia) | GI50 (M14 melanoma) | GI50 (RPMI-8226 leukemia) | GI50 (RXF 393 renal) | GI50 (U251 CNS) | GI50 (NCI-H460 lung) | GI50 (HCT-116 colon) | GI50 (TK-10 renal) | GI50 (HT29 colon) | GI50 (A549 NSCLC)
O=C(O)C1CSC2(CCCN(Cc3ccccc3)C2)N1 (configuration not stated) | > 79.6 µM | > 100 µM | > 100 µM | > 100 µM | > 100 µM | > 100 µM | > 34.4 µM | > 100 µM | > 100 µM | > 100 µM | – | – | – | – | – | – | – | – | – | –
O=[N+]([O-])c1ccc(Nc2cccc3c2[nH]c2c(-c4ccccc4)nccc23)c([N+](=O)[O-])c1 | > 100 µM | > 100 µM | > 100 µM | – | > 100 µM | – | > 100 µM | > 100 µM | > 100 µM | > 100 µM | – | – | – | – | – | – | – | – | – | –
Cc1nccn1S(=O)(=O)c1ccc(Cl)cc1 | > 100 µM | > 100 µM | > 100 µM | > 100 µM | > 100 µM | > 100 µM | > 100 µM | > 100 µM | > 100 µM | > 100 µM | – | – | – | – | – | – | – | – | – | –
Cc1ccc(C(=O)N/N=C(\N=Nc2ccccc2C(=O)O)c2ccc(N(C)C)cc2)cc1 | > 100 µM | > 100 µM | > 100 µM | > 100 µM | > 100 µM | > 100 µM | > 100 µM | > 100 µM | > 100 µM | – | – | – | – | – | – | – | – | – | – | –
ClC1=C(Cl)C2OC3C=CCC3OC2C(Cl)=C1Cl (configuration not stated) | > 100 µM | > 100 µM | > 100 µM | > 100 µM | > 100 µM | > 100 µM | 66.4 µM | 72.1 µM | – | > 100 µM | – | – | – | – | – | – | – | – | – | –
CNC(=O)C1OC(n2cnc3c(NCc4cccc(I)c4)nc(Cl)nc32)C(O)C1O (configuration not stated) | 76.6 µM | 40.4 µM | – | 21.9 µM | 41.7 µM | 29.8 µM | > 100 µM | – | – | 29.6 µM | – | – | – | – | – | – | – | – | – | –
O=C(Cn1c(=O)oc2ccc(C(=O)c3cccc(Cl)c3)cc21)c1ccccc1 | > 100 µM | > 100 µM | > 100 µM | > 100 µM | – | > 100 µM | > 100 µM | > 100 µM | > 100 µM | – | – | – | – | – | – | – | – | – | – | –
O=C(O)c1cccc(S(=O)(=O)NN2C(=O)CSC2c2c(O)ccc3ccccc23)c1 (configuration not stated) | 46.4 µM | > 100 µM | > 100 µM | > 100 µM | 38.5 µM | > 100 µM | – | 69.2 µM | > 100 µM | 89.1 µM | – | – | – | – | – | – | – | – | – | –
N=C(N)c1ccc(-c2ccc(-c3ccc(Cl)cc3Cl)s2)nc1 | 5.01 µM | – | – | 3.63 µM | – | – | 5.42 µM | – | – | 3.06 µM | 2.27 µM | 1.85 µM | 2.32 µM | 1.67 µM | – | – | – | – | – | –
CCC(C)N1CN(c2ccccc2)C2(CCN(CCCC3(c4ccc(F)cc4)OCCO3)CC2)C1=O (configuration not stated) | 15.3 µM | 10.9 µM | 30.8 µM | > 35.7 µM | 24.9 µM | 20.7 µM | 4 µM | > 37.5 µM | 23.2 µM | 26.5 µM | – | – | – | – | – | – | – | – | – | –
Cn1c(-c2c(C3=CC(=O)N(c4ccccc4)C3=O)c3ccccc3n2C)cc2ccccc21 | > 100 µM | > 100 µM | > 100 µM | > 100 µM | > 100 µM | > 100 µM | > 100 µM | > 100 µM | > 100 µM | > 100 µM | – | – | – | – | – | – | – | – | – | –
COc1ccc(C2=NN(c3nsc4ccccc34)C(=O)CC2)cc1 | > 100 µM | > 100 µM | > 100 µM | > 100 µM | > 100 µM | > 100 µM | > 100 µM | > 100 µM | > 100 µM | > 100 µM | – | – | – | – | – | – | – | – | – | –
COc1ccc(/C=C2\OC(=O)C(Cl)=C2c2ccc(OC)c(Cl)c2)cc1 | > 100 µM | > 100 µM | 59 µM | 76.9 µM | > 100 µM | 45.6 µM | 81.8 µM | > 100 µM | > 100 µM | 29.5 µM | – | – | – | – | – | – | – | – | – | –
Cc1cc(S(=O)(=O)Nc2n[nH]c(Nc3ccccc3)n2)c(SSc2cc(Cl)c(C)cc2S(=O)(=O)Nc2n[nH]c(Nc3ccccc3)n2)cc1Cl | > 100 µM | > 100 µM | > 100 µM | > 100 µM | > 100 µM | > 100 µM | > 100 µM | > 100 µM | > 100 µM | > 10 µM | – | – | – | – | – | – | – | – | – | –
Nc1c(C(=O)O)nnc2cc(Cl)ccc12 | > 100 µM | > 100 µM | > 100 µM | > 100 µM | > 100 µM | > 100 µM | – | > 100 µM | > 100 µM | – | – | – | – | – | – | – | – | – | – | –
CCc1n[nH]c(=O)[nH]1 | > 100 µM | – | > 100 µM | > 100 µM | > 100 µM | > 100 µM | – | > 100 µM | > 100 µM | > 100 µM | – | – | – | – | – | – | – | – | – | –
CC1=NN(c2nc(N)nc(-c3cc4ccccc4oc3=N)n2)C(C)(C)C1 | 48.6 µM | 76.8 µM | 34.2 µM | 36 µM | 35.5 µM | 38.4 µM | 42.6 µM | 40.2 µM | 41.3 µM | 43.5 µM | – | – | – | – | – | – | – | – | – | –
CCOC(=O)CN1C(=O)C(=O)N(c2ccc(OC)c3ccccc23)C1=O | > 100 µM | > 100 µM | – | > 100 µM | > 100 µM | > 100 µM | > 100 µM | > 100 µM | > 100 µM | > 100 µM | – | – | – | – | – | – | – | – | – | –
CC(C)=C=CP(=O)(O)c1ccccc1 | – | > 100 µM | > 100 µM | > 100 µM | > 100 µM | > 100 µM | – | > 100 µM | > 100 µM | – | – | – | – | – | – | – | – | – | – | –
COc1cc2nc(-c3cccs3)nc(N3C(c4cc(OC)c(OC)c(OC)c4)=NNC(=O)c4ccccc43)c2cc1OC | – | 50.4 µM | > 100 µM | > 100 µM | > 100 µM | 51.9 µM | – | > 100 µM | > 100 µM | – | – | – | – | – | – | – | – | – | – | –
O=C(CN1CCN(c2ccccn2)CC1)N1CCCn2c1nc1ccccc1c2=O | > 100 µM | > 100 µM | > 100 µM | > 100 µM | > 100 µM | > 100 µM | > 100 µM | > 100 µM | > 100 µM | – | – | – | – | – | – | – | – | – | – | –
O=S(=O)(O)c1cc(N=[N+]([O-])c2ccc(N=Nc3ccccc3)cc2S(=O)(=O)O)ccc1/C=C/c1ccc(N=[N+]([O-])c2ccc(N=Nc3ccccc3)cc2S(=O)(=O)O)cc1S(=O)(=O)O | > 100 µM | > 100 µM | > 100 µM | – | > 100 µM | – | > 100 µM | > 100 µM | > 100 µM | > 100 µM | – | – | – | – | – | – | – | – | – | –
COc1ccc(S(=O)(=O)Nc2cc(Sc3cccc4cccnc34)c(O)c3ccccc23)cc1 | – | 11.9 µM | 10.5 µM | 12.1 µM | 2.35 µM | 13.7 µM | 8.92 µM | 10.4 µM | 12.8 µM | 6.33 µM | – | 1.3 µM | 2.47 µM | 1.24 µM | 0.579 µM | 0.466 µM | 0.505 µM | 2.82 µM | 0.823 µM | 0.587 µM
